Experimental data reported in patent publication US9072775B2, “Fluorescent emulsions for optical imaging” (priority 2007, dated 2015).

How the values were obtained:
[1] = Absorption and emission spectra; type: physicochemical; details: In solution in MeOH
Description: (§1) It is common practice to determine a quantum yield relative to that of a reference standard, by the techniques known to those skilled in the art. The quantum yield of this formulation was calculated by comparison with a reference standard sample (Nile Blue perchlorate in ethanol, sold by Invitrogen) having a known quantum yield value equal to 0.27. The same measurements (carried out using a Varian spectrophotometer, model Cary 300 and a Perkin Elmer spectrofluorimeter, model LS 50) and calculations were carried out for a solution of DiD fluorophore in methanol (MeOH).

[2] = Quantum yield of fluorescence relative to a reference standard; type: physicochemical; details: In solution in MeOH; reference Nile Blue perchlorate in ethanol
Description: The quantum yield of fluorescence (Φ) is expressed by the following equation: (Φ)=(number of photons emitted)/(number of photons absorbed).
as §1

[3] = Fluorescence lifetime from time-resolved fluorescence decay; type: physicochemical; details: pulsed excitation 740 nm
Description: The fluorescence decays of the fluorophore free in solution in methanol or encapsulated in the lipid nanoparticles of oil-in-water emulsion type, in suspension in PBS (10 mM, pH 7.3), were measured on a measuring system using a neodymium-vanadate, continuous-wave laser [Millennia Pro, Spectra-Physics, USA], (532 nm, 5 W)-pumped sapphire-titanium laser [Tsunami, Spectra-Physics, USA] (80 MHz, 100 femtoseconds), tunable to a wavelength of 700 nm to 1000 nm. Depending on the operating mode of this device, the laser is injected into a multimode optical fiber, used as excitatory fiber for the sample to be studied. A second (detection) optical fiber collects the fluorescence emitted or the laser scattering via a filtering system. The signal is measured by means of a photomultiplier tube [Hamamatsu, Japan] coupled to a TCSPC counting board [Becker&Hickel, Germany]. The latter is controlled by means of a sampled part (4%) of the laser signal (pulse train) via a rapid photodiode (PD) [Becker&Hickel, Germany] before injection into the optical fiber.
The measurements were carried out using a pulsed excitation wavelength of 740 nm. The fluorescence intensity (in arbitrary units) was measured in order to plot curves reflecting the fluorescence decay (fluorescence intensity (arbitrary units) expressed as a function of time (in ps)); curves not represented. […]

[4] = in ethanol; cited from earlier work

Compound: CCCCCCCCCCCCCCCCCCN1C(=CC=CC=CC2=[N+](CCCCCCCCCCCCCCCCCC)c3ccccc3C2(C)C)C(C)(C)c2ccccc21.[O-][Cl+3]([O-])([O-])[O-] [DiD, 1,1′-dioctadecyl-3,3,3′,3′-tetramethylindodicarbocyanin perchlorate]
- Emission [1]: 665 nm
- Max. absorption [1]: 644 nm
- Quantum yield [2]: 0.29

Compound: CCCCCCCCCCCCCCCCCCN1/C(=C/C=C/C=C/C=C/C2=[N+](CCCCCCCCCCCCCCCCCC)c3ccccc3C2(C)C)C(C)(C)c2ccccc21.[I-] [DiR, 1,1′-dioctadecyl-3,3,3′,3′-tetramethylindotricarbocyanin iodide]
- Lifetime of the DiR fluorophore in solution in methanol [3]: 800 ps

Compound: CC[N+](CC)=c1ccc2nc3c(cc(N)c4ccccc43)oc-2c1.[O-][Cl+3]([O-])([O-])[O-] [Nile Blue perchlorate]
- known quantum yield value of reference standard [4]: 0.27
